From the NIST ThermoML archive (doi:10.1021/je500381c)

Test: xn = mol fraction of the nth substance listed
Conditions: for mass density / viscosity: 100 kPa, Liquid; for mass density: Vibrating tube method; for surface tension liquid-gas: Drop volume

CCC12CC3CC(CC(C3)C1)C2 [1-ethyladamantane] + OCC1CCCCC1
Conditions	mass density [kg/m3]	surface tension liquid-gas [mN/m]	viscosity [mPa·s]
293.15 K, x2 = 0	937.11	–	6.371
293.15 K, x2 = 0.1	936.13	–	6.695
293.15 K, x2 = 0.2002	935.23	–	7.433
293.15 K, x2 = 0.2997	934.37	–	8.368
293.15 K, x2 = 0.3999	933.76	–	9.674
293.15 K, x2 = 0.4998	933.1	–	11.54
293.15 K, x2 = 0.5989	932.54	–	14.09
293.15 K, x2 = 0.7001	931.93	–	17.67
293.15 K, x2 = 0.8023	931.24	–	23.66
293.15 K, x2 = 0.8996	930.57	–	29.61
298.15 K, x2 = 0	933.58	29.87	5.565
298.15 K, x2 = 0.1	932.5	30.21	5.776
298.15 K, x2 = 0.2002	931.58	30.84	6.348
298.15 K, x2 = 0.2997	930.72	30.99	7.083
298.15 K, x2 = 0.3999	930.09	31.23	8.081
298.15 K, x2 = 0.4998	929.43	31.51	9.483
298.15 K, x2 = 0.5989	928.87	31.86	11.38
298.15 K, x2 = 0.7001	928.31	31.98	14.04
298.15 K, x2 = 0.8023	927.68	32.1	18.53
298.15 K, x2 = 0.8996	927	32.21	22.86
303.15 K, x2 = 0	929.99	–	4.903
303.15 K, x2 = 0.1	928.84	–	5.033
303.15 K, x2 = 0.2002	927.89	–	5.484
303.15 K, x2 = 0.2997	927.06	–	6.058
303.15 K, x2 = 0.3999	926.4	–	6.832
303.15 K, x2 = 0.4998	925.74	–	7.675
303.15 K, x2 = 0.5989	925.17	–	9.337
303.15 K, x2 = 0.7001	924.63	–	11.31
303.15 K, x2 = 0.8023	924.04	–	14.75
303.15 K, x2 = 0.8996	923.4	–	18.07
308.15 K, x2 = 0	926.4	–	4.348
308.15 K, x2 = 0.1	925.16	–	4.417
308.15 K, x2 = 0.2002	924.2	–	4.772
308.15 K, x2 = 0.2997	923.39	–	5.224
308.15 K, x2 = 0.3999	922.68	–	5.833
308.15 K, x2 = 0.4998	922.03	–	6.657
308.15 K, x2 = 0.5989	921.45	–	7.748
308.15 K, x2 = 0.7001	920.92	–	9.236
308.15 K, x2 = 0.8023	920.38	–	11.88
308.15 K, x2 = 0.8996	919.77	–	14.39
313.15 K, x2 = 0	922.81	–	3.878
313.15 K, x2 = 0.1	921.48	–	3.897
313.15 K, x2 = 0.2002	920.49	–	4.182
313.15 K, x2 = 0.2997	919.69	–	4.542
313.15 K, x2 = 0.3999	918.95	–	5.016
313.15 K, x2 = 0.4998	918.29	–	5.663
313.15 K, x2 = 0.5989	917.71	–	6.499
313.15 K, x2 = 0.7001	917.19	–	7.629
313.15 K, x2 = 0.8023	916.67	–	9.75
313.15 K, x2 = 0.8996	916.12	–	11.66
318.15 K, x2 = 0	919.21	–	3.478
318.15 K, x2 = 0.1	917.79	–	3.463
318.15 K, x2 = 0.2002	916.77	–	3.688
318.15 K, x2 = 0.2997	915.95	–	3.973
318.15 K, x2 = 0.3999	915.2	–	4.35
318.15 K, x2 = 0.4998	914.53	–	4.857
318.15 K, x2 = 0.5989	913.94	–	5.504
318.15 K, x2 = 0.7001	913.43	–	6.374
318.15 K, x2 = 0.8023	912.93	–	8.051
318.15 K, x2 = 0.8996	912.44	–	9.556
323.15 K, x2 = 0	915.62	–	3.134
323.15 K, x2 = 0.1	914.09	–	3.094
323.15 K, x2 = 0.2002	913.03	–	3.27
323.15 K, x2 = 0.2997	912.19	–	3.497
323.15 K, x2 = 0.3999	911.42	–	3.798
323.15 K, x2 = 0.4998	910.75	–	4.199
323.15 K, x2 = 0.5989	910.15	–	4.707
323.15 K, x2 = 0.7001	909.63	–	5.378
323.15 K, x2 = 0.8023	909.16	–	6.705
323.15 K, x2 = 0.8996	908.7	–	7.906
328.15 K, x2 = 0	912.01	–	2.838
328.15 K, x2 = 0.1	910.38	–	2.777
328.15 K, x2 = 0.2002	909.27	–	2.915
328.15 K, x2 = 0.2997	908.41	–	3.096
328.15 K, x2 = 0.3999	907.62	–	3.338
328.15 K, x2 = 0.4998	906.94	–	3.657
328.15 K, x2 = 0.5989	906.33	–	4.059
328.15 K, x2 = 0.7001	905.81	–	4.581
328.15 K, x2 = 0.8023	905.35	–	5.629
328.15 K, x2 = 0.8996	904.92	–	6.508
333.15 K, x2 = 0	908.41	–	2.581
333.15 K, x2 = 0.1	906.65	–	2.507
333.15 K, x2 = 0.2002	905.5	–	2.613
333.15 K, x2 = 0.2997	904.61	–	2.756
333.15 K, x2 = 0.3999	903.81	–	2.952
333.15 K, x2 = 0.4998	903.1	–	3.208
333.15 K, x2 = 0.5989	902.49	–	3.525
333.15 K, x2 = 0.7001	901.96	–	3.935
333.15 K, x2 = 0.8023	901.5	–	4.674
333.15 K, x2 = 0.8996	901.1	–	5.472
